Test results reported in patent publication US20190225683A1, “TARGETING OXAZOLE STRUCTURES FOR THERAPY AGAINST INFLAMMATORY DISEASES” (THE BRIGHAM AND WOMEN'S HOSPITAL, INC., priority 2015, published 2019).
Entries after “also recorded” stand apart in the source; their conditions may differ.

Experiments:
[1] = test system: AhR response elements (XRE); details: cited from earlier work
MODE-K cells = MODE-K cells stimulated with compounds, Mttp and Cxcl16 transcripts by qPCR; format: cell-based, mouse; details: for Cxcl16 transcript expression / Mttp transcript expression: MODE-K cells, 48 hours, qPCR normalized to β-actin; for Transcriptional pattern of NKT signature genes (Mttp, Cxcl16): MODE-K epithelial cells
Description: Mode-K cells were stimulated for 48 hours with the listed compounds and MUT) (2A) and Cxcl16 (2B) transcript express was quantified by qPCR normalized to β-actin, a housekeeping gene. Graph color coded to indicate control, OxC, and ITE compounds. […]
Kinetic transcript profiles of Mttp, Cxcl16, CD1d, and Hsp110 are assessed by qPCR normalizing transcript abundance to house keeping gene, (3-actin. Protein expression is quantified by immunoblot (MTTP, HSP110) or ELISA (CXCL16). CD1d protein expression is monitored using monoclonal antibodies conjugated to phycoerythrin and fluorescein isothyocynate to assess CD1d trafficking to and from the cell surface.[89]Stimulatory ligands are washed out prior to administration of αGC, and conditioned cells are co-cultured over night with 4 classes of invariant (DN32.D3, 24.7, 24.8) or non-variant (14S.6) to assess αGC specific and autoreactive responses to epithelial and myeloid cell lipid presentation. Production of IL-10, IL-4, IL-13, IFNγ response to epithelial and myeloid, and the source of cytokine production (APC or NKT) are determined using gluteraldehyde fixation. Primary iNKT cells are isolated from colonic lamina propria or peripheral organs (liver, spleen, mesenteric lymph node) and purified by FACS (BD ARIA-II Sorter) using monoclonal antibodies against CD45, TCRI3, CD3E, and CD1d:αGC loaded tetramer (APC conjugated) and exclusion of unloaded CD1d tetramer (PE). […] Strand specific libraries are generated using 500 ng RNA input and subject to paired-end 100 bp read sequencing using a HISEQ2000 at the Dana Farber Cancer Institute. Sequence reads are aligned to the mouse mm10 reference genome using Tophat alignments restricted to uniquely mapping reads with <2 possible mismatches permitted. […] Candidate transcripts arevalidated in primary IECs (EpCAM+ CD45−) or mucosal APCs by qPCR.

24.7 NKT hybridoma = test: Compound-conditioned MODE-K cells incubated with alpha-galactosylceramide, co-cultured with 24.7 iNKT hybridoma, IL-10 by ELISA; format: cell-based, mouse; details: MODE-K conditioned with compound or lysate, αGC presented on CD1d
Description: FIGS. 3A-3B depict in accordance with an embodiment of the invention, (3A) MODE-K cells transfected with control- or AhR-targeted siRNA. After 48 hours, these cells were stimulated with the compounds indicated for 48 hours. Cells were washed and incubated with alpha-galactosylceramide and subsequently co-cultured with the 24.7 NKT hybridoma. IL-10 production was measured by ELISA. (3B) Hepatocytes from WT or AhR-deficient mice were stimulated as in (3A).
FIGS. 7A-7B depict in accordance with an embodiment of the invention, (7A) structure of the OxC compound, B17 microcin. […] Cells were incubated with aGC and co-cultured with24.7 iNKT hybridoma and IL-10 production was measured. “[…]”, “G2QG2”, “GGNG”, and “GSHI” are disclosed as SEQ ID NO: 3, SEQ ID NO: 6, SEQ ID NO: 5, and SEQ ID NO: 2, respectively.
Kinetic transcript profiles of Mttp, Cxcl16, CD1d, and Hsp110 are assessed by qPCR normalizing transcript abundance to house keeping gene, (3-actin. Protein expression is quantified by immunoblot (MTTP, HSP110) or ELISA (CXCL16). CD1d protein expression is monitored using monoclonal antibodies conjugated to phycoerythrin and fluorescein isothyocynate to assess CD1d trafficking to and from the cell surface.[89]Stimulatory ligands are washed out prior to administration of αGC, and conditioned cells are co-cultured over night with 4 classes of invariant (DN32.D3, 24.7, 24.8) or non-variant (14S.6) to assess αGC specific and autoreactive responses to epithelial and myeloid cell lipid presentation. Production of IL-10, IL-4, IL-13, IFNγ response to epithelial and myeloid, and the source of cytokine production (APC or NKT) are determined using gluteraldehyde fixation. […] Strand specific libraries are generated using 500 ng RNA input and subject to paired-end 100 bp read sequencing using a HISEQ2000 at the Dana Farber Cancer Institute. Sequence reads are aligned to the mouse mm10 reference genome using Tophat alignments restricted to uniquely mapping reads with <2 possible mismatches permitted. […]

NFkB reporter = NFkB reporter assay; format: cell-based; details: FIG. 14
[2] = Colitis model: skin pre-sensitization, then intra-rectal administration; format: in vivo, mice
Description: Colitis scores were blindly performed by a pathologist.
Distal colon explants were cultured overnight and IL-10 (6A) and IL-13 (6B) production was measured by ELISA.
Changes in weight are monitored and colons harvested on day 3 and day 5 post-rectal challenge for histopathological analysis. Distalhyperemia in the mucosa, cellular infiltration in the lamina propria, elongation of colonic mucosa, epithelial erosion. The number of conventional T cells, NKT cells and mucosal APC subsets are enumerated by established flow cytometry protocols.[11] In addition, kinetic cytokine profiles are analyzed to verify that OxC colitis phenocopies molecular signatures associated with oxazolone colitis. […] [8] In addition, colonic IECs and lamina propria mononuclear cells are sorted by FACS and analyzed for Mttp and Cxcl16 expression by qPCR.

AhR [3] = test: AhR targets Cyp1a1 and IDO1 by qPCR in MODE-K cells with control or AhR-targeted siRNA; format: cell-based, mouse; details: MODE-K cells or primary hepatocytes
Description: FIGS. 8A-8C depict in accordance with an embodiment of the invention, MODE-K transfected with control or AhR-targeted siRNA. After 48 hours, MODE-K cells were stimulated with the indicated compounds. Cyp1a1 (8A) or IDO1 (8B, 8C) were quantified by qPCR.
Stimulation of MODE-K cells with OxC compounds but not control compounds differentially regulates two well characterized AhR targets: Cyp1a1,[68] and IDO1. [FIG. 8] Specific siRNA mediated knockdown of the AhR in MODE-K cells diminished expression of both AhR targets in response to OxC stimulation.

AhR reporter = AhR reporter assay; format: cell-based; details: FIG. 14
AhR [4] = target: T1, AhR (Homo sapiens, UniProt P35869); details: hepatocyte reporter assay; cited from earlier work
T1 construct: endogenous in cells; host or cells: HepG2
T1 sequence (P35869 11-848): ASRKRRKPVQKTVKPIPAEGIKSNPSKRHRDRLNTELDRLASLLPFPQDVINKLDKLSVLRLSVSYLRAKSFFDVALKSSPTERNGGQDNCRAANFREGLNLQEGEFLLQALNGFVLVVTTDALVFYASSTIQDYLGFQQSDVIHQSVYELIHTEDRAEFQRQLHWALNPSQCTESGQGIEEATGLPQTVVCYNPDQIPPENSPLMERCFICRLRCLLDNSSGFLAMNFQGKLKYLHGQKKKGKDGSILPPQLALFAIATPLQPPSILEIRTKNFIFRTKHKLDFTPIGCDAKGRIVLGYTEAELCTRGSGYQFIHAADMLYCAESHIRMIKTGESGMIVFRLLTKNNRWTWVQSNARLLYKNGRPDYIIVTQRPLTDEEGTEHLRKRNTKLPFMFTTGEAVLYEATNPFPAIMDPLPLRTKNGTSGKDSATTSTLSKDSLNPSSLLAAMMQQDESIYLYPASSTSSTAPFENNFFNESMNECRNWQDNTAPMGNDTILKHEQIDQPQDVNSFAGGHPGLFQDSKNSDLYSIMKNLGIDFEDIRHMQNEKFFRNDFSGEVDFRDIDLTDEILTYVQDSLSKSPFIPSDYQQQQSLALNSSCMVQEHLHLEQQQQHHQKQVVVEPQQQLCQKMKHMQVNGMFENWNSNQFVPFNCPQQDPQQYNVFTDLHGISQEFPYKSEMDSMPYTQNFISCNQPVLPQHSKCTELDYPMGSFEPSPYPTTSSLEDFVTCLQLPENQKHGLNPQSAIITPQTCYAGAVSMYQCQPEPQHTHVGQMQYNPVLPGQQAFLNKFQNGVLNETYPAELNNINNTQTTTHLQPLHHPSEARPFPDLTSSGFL

[5] = target: T2, aryl hydrocarbon receptor (AhR) (Homo sapiens, UniProt P35869); details: previous studies; cited from earlier work
T2 sequence (P35869 11-848): T1 sequence (P35869 11-848)

[6] = compared to vehicle treated control animals

| Compound | Cxcl16 transcript expression (MODE-K cells) | Mttp transcript expression (MODE-K cells) | Transcriptional pattern of NKT signature genes (Mttp, Cxcl16) (MODE-K cells) | IL-10 production by iNKT cells co-cultured with conditioned cells (24.7 NKT hybridoma) | NFkB reporter activation (NFkB reporter) | AhR reporter activation (AhR reporter) | other results |
| --- | --- | --- | --- | --- | --- | --- | --- |
| COC(=O)c1csc(C(=O)c2c[nH]c3ccccc23)n1 [ITE, 2-(1H-Indol-3-carbonyl)-4-thiazolecarboxylic acid methyl ester] |  |  |  |  |  |  | Concentration activating XRE [1]: picomolar concentrations |
| CCO/C=C1\N=C(c2ccccc2)OC1=O [oxazolone, 4-ethoxymethylene-2-phenyl-oxazol-5-one] | induce CXCL16 | suppress Mttp | modulates specific gene targets involved in NKT cell biology | diminished; also recorded: inhibited IL-10 production | not an NFkB reporter | activate an AhR reporter | Oxazolone colitis in Vil-Cre+ X AhR fl/fl mice ([2]; 3% presensitization, 1% intra-rectal, epithelial AhR deficiency): protected against oxazolone colitis; Expression of AhR targets Cyp1a1 and IDO1 (AhR [3]): modulates well-characterized AhR targets |
| 1-methyl-pyrroline [MP] | loss of these biological effects | loss of these biological effects |  |  |  |  |  |
| C=CC1(C)OC(=O)N(c2cc(Cl)cc(Cl)c2)C1=O (stereo not shown) [Vinclozolin, vinclozolin] |  |  | demonstrates a similar transcriptional pattern | exerts modulatory effects on iNKT cell responses similar oxazolone |  |  | Cellular responses (transcriptional changes and NKT responses) (MODE-K cells; preliminary experiments, FIGS. 2, 3): elicit similar cellular responses as oxazolone and TMO; AhR activation in HepG2 (AhR [4]): AhR activator; AhR ligand status [5]: ligand for the aryl hydrocarbon receptor (AhR) |
| CC1=NC(C)OC1C (stereo not shown) [TMO, 2,4,5-trimethyl-2,5-dihydro-1,3-oxazole] | induce CXCL16 | suppress Mttp |  | diminished; also recorded: inhibited IL-10 production | not an NFkB reporter | activate an AhR reporter | Colitis phenotype in vivo [2, 6]: phenocopies the inflammation associated with oxazolone; Colon shortening [2, 6]: colon shortening; Expression of Th2 cytokines [2, 6]: expression of Th2 cytokines characteristic of ulcerative colitis; Histopathology, blind scoring by a pathologist [2, 6]: histopathology (based on blind scoring by a pathologist); Weight loss [2, 6]: increased weight loss |
| CC1CC(C)C(C)C1 (stereo not shown) [TMC, 1,2,4-trimethylcyclopentane] | loss of these biological effects | loss of these biological effects |  |  |  |  |  |
